Tests used:
Format in all cases: in vivo, human
[1] = tested on: patients with cerebral infarction at the acute phase (within 72 hours after onset of the disease); test: Clinical test Example 1: randomization test at two doses, efficacy by Rankin Scale and Glasgow Outcome Scale; conditions: 4 mg/kg/h vs 0.4 mg/kg/h group, 1 h continuous i.v. once a day for 7 days, cases with JSS≦15 before administration, three months after commencement of administration
Experimental: (§1) As a clinical test, a randomization test was carried out on patients with cerebral infarction at the acute phase (within 72 hours after onset of the disease), at two doses under the following conditions. • Object: 97 patients in the acute phase cerebral infarction. • Administration method and dosage: 1 hour of continuous intravenous administration once a day in each group; • (1) (2R)-2-propyloctanoic acid: 0.4 mg/kg/h; • (2) (2R)-2-propyloctanoic acid: 4 mg/kg/h. • Administration period: 7 days • The Number of Cases: • (1) (2R)-2-propyloctanoic acid 0.4 mg/kg/h administered group: 51 patients; • (2) (2R)-2-propyloctanoic acid 4 mg/kg/h administered group: 46 patients. Evaluation Items: Main Evaluation Items <Efficacy Evaluation Items> (1) Rankin Scale (RS)
Evaluation method: Symptoms of patients were scored by classifying them into the following grades of Table 1.
(2) Glasgow Outcome Scale (GOS)
Evaluation method: Symptoms of patients were scored by classifying them into the following grades of Table 2.
(§2) <Safety Evaluation Item> • Frequency of adverse matters and the contents thereof (symptoms, causal relation and the like): • Analysis: Therapeutic effects by continuous intravenous administration of (2R)-2-propyloctanoic acid were evaluated based on the above main evaluation items. • Results: The results are shown below. <Efficacy Evaluation Item>

serum S-100β = test: Clinical test Example 2: serum S-100β content (SMART S100 ELISA Kit); conditions: administered groups (2 to 12 mg/kg/h, i.v. 7 days) in comparison with placebo group; particularly remarkable on and after 3 days; FIG. 3
Experimental: (§3) As a clinical test, a double blind test was carried out using patients with cerebral infarction at the acute phase (within 24 hours after onset of the disease) under the following conditions by (2R)-2-propyloctanoic acid administration groups (6 varied doses) and a placebo administration group. • Object: 92 patients in the acute phase cerebral infarction. • Administration method and dosage: 1 hour of continuous intravenous administration once a day in each group; • (1) (2R)-2-propyloctanoic acid: 2 mg/kg/h; • (2) (2R)-2-propyloctanoic acid: 4 mg/kg/h; • (3) (2R)-2-propyloctanoic acid: 6 mg/kg/h; • (4) (2R)-2-propyloctanoic acid: 8 mg/kg/h; • (5) (2R)-2-propyloctanoic acid: 10 mg/kg/h; • (6) (2R)-2-propyloctanoic acid: 12 mg/kg/h; • (7) placebo. • Administration period: 7 days • The Number of Cases: • (1) (2R)-2-propyloctanoic acid 2 mg/kg/h administered group: 9 patients; • (2) (2R)-2-propyloctanoic acid 4 mg/kg/h administered group: 8 patients; • (3) (2R)-2-propyloctanoic acid 6 mg/kg/h administered group: 8 patients; • (4) (2R)-2-propyloctanoic acid 8 mg/kg/h administered group: 8 patients; • (5) (2R)-2-propyloctanoic acid 10 mg/kg/h administered group: 8 patients; • (6) (2R)-2-propyloctanoic acid 12 mg/kg/h administered group: 8 patients; • (7) placebo administered group: 43 patients. […]

[2] = tested on: patients with cerebral infarction at the acute phase (within 72 hours after onset of the disease); test: Clinical test Example 1: safety evaluation (frequency of adverse matters and contents); conditions: i.v. 7 days, causal relation to the test drug was denied
Experimental: as §1, §2

[3] = tested on: patients with cerebral infarction at the acute phase (within 24 hours after onset of the disease); test: Clinical test Example 2: safety evaluation (adverse matters and clinical test values); conditions: administration group (2 to 12 mg/kg/h, i.v. 7 days)
Experimental: As a clinical test, a double blind test was carried out using patients with cerebral infarction at the acute phase (within 24 hours after onset of the disease) under the following conditions by (2R)-2-propyloctanoic acid administration groups (6 varied doses) and a placebo administration group. • Object: 92 patients in the acute phase cerebral infarction. • Administration method and dosage: 1 hour of continuous intravenous administration once a day in each group; • (1) (2R)-2-propyloctanoic acid: 2 mg/kg/h; • (2) (2R)-2-propyloctanoic acid: 4 mg/kg/h; • (3) (2R)-2-propyloctanoic acid: 6 mg/kg/h; • (4) (2R)-2-propyloctanoic acid: 8 mg/kg/h; • (5) (2R)-2-propyloctanoic acid: 10 mg/kg/h; • (6) (2R)-2-propyloctanoic acid: 12 mg/kg/h; • (7) placebo. • Administration period: 7 days • The Number of Cases: • (1) (2R)-2-propyloctanoic acid 2 mg/kg/h administered group: 9 patients; • (2) (2R)-2-propyloctanoic acid 4 mg/kg/h administered group: 8 patients; • (3) (2R)-2-propyloctanoic acid 6 mg/kg/h administered group: 8 patients; • (4) (2R)-2-propyloctanoic acid 8 mg/kg/h administered group: 8 patients; • (5) (2R)-2-propyloctanoic acid 10 mg/kg/h administered group: 8 patients; • (6) (2R)-2-propyloctanoic acid 12 mg/kg/h administered group: 8 patients; • (7) placebo administered group: 43 patients. Evaluation Items: Main Evaluation Items <Efficacy Evaluation Items> (1) Modified Rankin Scale (mRS)
Adverse Matters and Clinical Test Values
• Analysis: Therapeutic effects by continuous intravenous administration of (2R)-2-propyloctanoic acid was evaluated based on the above main evaluation items. • Results: The results are shown below. <Efficacy Evaluation Item>

[4] = tested on: patients with cerebral infarction at the acute phase (within 24 hours after onset of the disease); test: Clinical test Example 2: double blind placebo-controlled test, efficacy by modified Rankin Scale; conditions: 8 mg/kg/h administration group, 1 h continuous i.v. once a day for 7 days; 40 days after commencement of administration; statistically significant vs placebo (32.5%)
Experimental: as §3

## CCCCCC[C@@H](CCC)C(=O)O [(2R)-2-propyloctanoic acid]
[1]; FIG. 1
  ratio of occupying the category of improvement by RS (Rankin Scale): statistically significant differences were found
[1]; FIG. 2
  ratio of occupying the category of improvement by GOS (Glasgow Outcome Scale): statistically significant differences were found
Serum S-100β
  serum S-100β content during the administration period: tendency of inhibiting increase of the serum S-100β content
[2]; 0.4 mg/kg/h administration group
  cases of death: 3 cases
[2]; 4 mg/kg/h administration group
  cases of death: 4 cases
[3]; causal relation to the test drug was denied, placebo 12 cases
  Serious adverse matters: 10 cases
[3]; placebo 39.5%, no difference
  Frequency of the adverse matters (side effects) whose causal relation to the test drug was not denied: 42.9%
[3]; placebo 100%, no difference
  Frequency of the adverse matters: 98%
[4]
  ratio occupied by a score of 2 or less (category of good improvement) on modified Rankin Scale (mRS): 87.5%

— patent US7928143B2, “Method for preventing and/or treating neurodegenerative diseases” (Ono Pharmaceutical Co., Ltd., priority 2003, dated 2011)
